Experiment [1] deals with T1, PfCRT variant F268A (Plasmodium falciparum, UniProt Q9N623, A220S/F268A/I356T/K76T/M74I/N326S/N75E/Q271E/R371I).
T1 sequence (Q9N623 1-424 M74I/N75E/K76T/A220S/F268A/Q271E/N326S/I356T/R371I): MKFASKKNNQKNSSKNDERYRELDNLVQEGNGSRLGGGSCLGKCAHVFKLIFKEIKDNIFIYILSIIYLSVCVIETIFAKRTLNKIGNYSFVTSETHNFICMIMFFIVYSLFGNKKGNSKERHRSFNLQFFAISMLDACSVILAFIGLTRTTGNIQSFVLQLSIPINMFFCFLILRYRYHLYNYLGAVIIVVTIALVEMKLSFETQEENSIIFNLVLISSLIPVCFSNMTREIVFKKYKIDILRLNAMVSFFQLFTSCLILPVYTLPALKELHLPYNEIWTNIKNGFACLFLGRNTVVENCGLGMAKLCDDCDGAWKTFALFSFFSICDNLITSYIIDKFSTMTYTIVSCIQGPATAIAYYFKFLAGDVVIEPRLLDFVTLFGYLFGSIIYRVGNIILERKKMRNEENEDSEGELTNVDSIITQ
Description: CQ uptake assay, oocytes expressing F268A. The format is cell-based. The procedure: (§1) Site-directed mutagenesis of PfCRT^Dd2 was performed as described using the megaprimer method with overlap extension[21],[54]. The primer pairs used are listed in Supplementary Table 6. Please note that a codon-optimized and oocyte-adapted version of PfCRT^Dd2 was used[22] (Supplementary Fig. 16). The resulting DNA fragment was cloned into the SP64T expression vector and verified by sequencing.
(§2) Oocytes were obtained as described previously. Briefly, adult (>2 years old) female X. laevis frogs (NASCO) were anesthetized in a cooled solution of ethyl 3-amino benzoate methanesulfonate (0.1%, w/v), followed by a surgical removal of parts of the ovary. The ovary lobes were carefully dissected and small pieces of oocytes were incubated in Ca^2+-free ND96 buffer (96 mM NaCl, 2 mM KCl, 1 mM MgCl2 buffered with 5 mM HEPES/NaOH, pH 7.5) supplemented with collagenase D (0.1%, w/v; Roche), BSA (0.5%, w/v), and 9 mm Na2HPO4 at 18 °C for 14-16 h while gentle shaking. After incubation, the oocytes were carefully washed several times with ND96 buffer (96 mM NaCl, 2 mM KCl, 1.8 mM CaCl2, 1 mM MgCl2 buffered with 5 mM HEPES/NaOH, pH 7.5) supplemented with 100 mg l^−1 gentamycin). Defolliculated and healthy-looking stage V-VI oocytes were manually selected for RNA microinjection. The RNA was generated as following: The codon-optimized sequences of PfCRT variants were cloned into the pSP64T expression vector. After vector linearization using the restriction endonucleases BamHI or SalI (New England Biolabs), transcription was performed using the in vitro SP6 mMessage mMachine Kit (Ambion)[34]. The obtained RNA was kept at −80 °C and diluted with nuclease-free water to a concentration of 0.6 μg μl^−1. Precision-bore glass capillary tubes (3.5-inch glass capillaries; Drummond Scientific Co.) were pulled on a vertical puller (P-87 Flaming/Brown micropipette puller, Sutter Instrument Co.), graduated, and placed on a microinjector (Nanoject II Auto-Nanoliter Injector, Drummond Scientific Co.). 50 nl of nuclease-free water alone (control oocytes) or 50 nl of 0.6 μg μl^−1 RNA were injected under stereomicroscopic control. Injected oocytes were incubated for 46–72 h at 18 °C with twice-daily buffer changes before usage in experiments.
(§3) Drug uptake assays were performed as described previously[21],[22],[24],[34]. […] The direction of radio-labeled drug transport is here from the mostly acidic extracellular solution (pH 4.5 or 6.0, as indicated) into the oocyte cytosol (pH ∼ 7.2), which corresponds to the efflux of drug from the acidic digestive vacuole (pH 5.2) into the parasite cytoplasm (pH 7.2). The topology of PfCRT in the oolemma is such that both the N- and C-terminus face the extracellular milieu[3],[22]. In the parasite, the N- and C-terminus face the lumen of the digestive vacuole. CQ uptake kinetics were performed by incubating oocytes in ND96 buffer adjusted to a pH of 4.5, 5.0, 5.5, or 6.0 and supplemented with 50 nM [^3H]CQ and one of 7 different CQ concentrations (10 µM, 50 µM, 100 µM, 200 µM, 300 µM, 400 µM, 500 µM CQ). The reaction was stopped at the 60 min time point, which is in the linear uptake range[22],[34] (Supplementary Fig. 17). […] The radioactivity of each sample was measured using a liquid scintillation analyzer Tri-Carb 4910 TR (PerkinElmer). Oocytes that were injected with water instead of RNA were analyzed in parallel, representing the uptake of a drug by diffusion and/or endogenous permeation pathways. […]

For experiment [2], the system named is PfCRT variant D313A. Description: CQ uptake assay, oocytes expressing D313A. In kind it is cell-based, Plasmodium falciparum. As to the method:
as §1, §2
Drug uptake assays were performed as described previously[21],[22],[24],[34]. […] The direction of radio-labeled drug transport is here from the mostly acidic extracellular solution (pH 4.5 or 6.0, as indicated) into the oocyte cytosol (pH ∼ 7.2), which corresponds to the efflux of drug from the acidic digestive vacuole (pH 5.2) into the parasite cytoplasm (pH 7.2). The topology of PfCRT in the oolemma is such that both the N- and C-terminus face the extracellular milieu[3],[22]. In the parasite, the N- and C-terminus face the lumen of the digestive vacuole. CQ uptake kinetics were performed by incubating oocytes in ND96 buffer adjusted to a pH of 4.5, 5.0, 5.5, or 6.0 and supplemented with 50 nM [^3H]CQ and one of 7 different CQ concentrations (10 µM, 50 µM, 100 µM, 200 µM, 300 µM, 400 µM, 500 µM CQ). The reaction was stopped at the 60 min time point, which is in the linear uptake range[22],[34] (Supplementary Fig. 17). For determination of the amount of drug uptake for each oocyte, the reaction medium was removed and the oocytes were washed three times with 2 ml of ice-cold ND96 buffer. Each oocyte was individually transferred to a scintillation vial containing 5% sodium dodecyl sulfate (200 μl) for lysis. The radioactivity of each sample was measured using a liquid scintillation analyzer Tri-Carb 4910 TR (PerkinElmer). Oocytes that were injected with water instead of RNA were analyzed in parallel, representing the uptake of a drug by diffusion and/or endogenous permeation pathways. The resulting value represents the “background“ level of drug accumulation in oocytes (in-depth discussion in[22]). […]

The target in experiment [3] is T2, PfCRT variant E198A (Plasmodium falciparum, UniProt Q9N623, A220S/E198A/I356T/K76T/M74I/N326S/N75E/Q271E/R371I).
T2 sequence (Q9N623 1-424 M74I/N75E/K76T/E198A/A220S/Q271E/N326S/I356T/R371I): T1 sequence (Q9N623 1-424 M74I/N75E/K76T/A220S/F268A/Q271E/N326S/I356T/R371I) with E198A, A268F
Description: CQ uptake assay, oocytes expressing E198A. The format is cell-based. As to the method:
as §1, §2, §3

[4] abbreviates: F268A, 50 µM CQ, 1 h, mean ± SEM.
Where [5] appears, read: pH 4.5, single replicates, Fig 1d left.
The mark [6] stands for this setting: pH 6.0, single replicates, Fig 1d left.
Where [7] appears, read: D313A, 50 µM CQ, 1 h, mean ± SEM.
Setting [8] is: E198A, 50 µM CQ, 1 h, mean ± SEM.

Consider one compound from PMC10349806 (Nature Communications, 2023).

Where a chain is given by its changes, count along the chain named. Several values for one entry are separate records, joined by “and”; a condition that tells them apart may be missing. Identical values can stand only once.

For the compound `CCN(CC)CCCC(C)Nc1ccnc2cc(Cl)ccc12` (stereo not shown) [CQ, chloroquine], the “Activity at pH 4.5” value in experiment [1] (setting [4]) turned out to be 1.06 ± 0.19 pmol h-1 oocyte-1; in experiment [2] (setting [7]), 1.49 ± 0.21 pmol h-1 oocyte-1; in experiment [3] (setting [8]), 1.23 ± 0.15 pmol h-1 oocyte-1. Besides, the figures for the “Activity at pH 6.0” value in experiment [1] (setting [4]), in experiment [2] (setting [7]) and in experiment [3] (setting [8]) were 2.93 ± 0.28 pmol h-1 oocyte-1, 4.55 ± 0.45 pmol h-1 oocyte-1 and 3.10 ± 0.44 pmol h-1 oocyte-1, respectively. For the same compound, the R-value in experiment [1] (F268A, CQ transport at pH 4.5 / pH 6.0) came to 0.40 ± 0.10; in experiment [2] (D313A, CQ transport at pH 4.5 / pH 6.0), 0.33 ± 0.04; in experiment [3] (E198A, CQ transport at pH 4.5 / pH 6.0) it was 0.44 ± 0.11. In addition, the “F268A transport activity pH 4.5” value in experiment [1] (setting [5]) is 0.75 pmol oocyte-1 h-1 and 1.37 pmol oocyte-1 h-1 and 0.63 pmol oocyte-1 h-1 and 1.50 pmol oocyte-1 h-1. The “F268A transport activity pH 6.0” value in experiment [1] (setting [6]) was 3.49 pmol oocyte-1 h-1 and 2.31 pmol oocyte-1 h-1 and 3.48 pmol oocyte-1 h-1 and 2.45 pmol oocyte-1 h-1. In addition, in experiment [2] (setting [5]), the “D313A transport activity pH 4.5” value is 2.00 pmol oocyte-1 h-1 and 1.13 pmol oocyte-1 h-1 and 1.34 pmol oocyte-1 h-1. Besides, in experiment [2] (pH 4.5 vs pH 6.0, Fig 1d left), the “D313A R-value” is 0.38 and 0.23 and 0.39. In addition, in experiment [2] (setting [6]), the “D313A transport activity pH 6.0” value was 5.27 pmol oocyte-1 h-1 and 4.91 pmol oocyte-1 h-1 and 3.47 pmol oocyte-1 h-1. In addition, the “E198A transport activity pH 4.5” value in experiment [3] (setting [5]) was 1.49 pmol oocyte-1 h-1 and 1.34 pmol oocyte-1 h-1 and 0.87 pmol oocyte-1 h-1. Moreover, the “E198A transport activity pH 6.0” value in experiment [3] (setting [6]) is 2.08 pmol oocyte-1 h-1 and 3.94 pmol oocyte-1 h-1 and 3.27 pmol oocyte-1 h-1.
